Reference: patent US8809343B2, “Pyrimidine derivative, preparation method and use thereof” (Fudan University, priority 2008, dated 2014)
Read-outs that look alike come from different tables or passages of the source.

Experiments:
[1] = tested on: HIV-1 IIIB strain; assay: Anti-HIV activity: protection of HIV-infected MT-4 cells from virus-induced cell lesions; format: cell-based
Procedure: (§1) Anti-virus activity of cells in vitro was determined by Rega Institute for Medical of […] Katholleke University, consisting mainly: inhibitory activity towards HIV-infected MT-4 cells and cell toxicity. The method is described below: exert the compound on the HIV-infected ME-4 cells, and determine the protection of the drug on the cell lesions induced by HIV at varied HIV-infection intervals, calculate the half effective concentration IC50, the required concentration that protect 50% of cells from cell lesions induced by HIV. Toxicity determination is carried out in parallel with anti-HIV activity experiments, also in the cultured MT-4 cells, determine the CC50, the concentration that leads 50% of uninfected cells to cell lesions, and calculate the selectivity index SI=CC50/IC50 with the MTT method.
(§2) Anti-HIV activity of various compounds is monitored by the inhibitory efficiency of drugs on the cell lesions induced by HIV. Carry out cell culture with MT-4 cells. The adopted virus strains are HIV-1 IIIB strain and drug-resistant viral strain of […].
(§3) The detailed operation is as follows: the compound is dissolved with DMSO or water and diluted with phosphate buffer saline, 3×10^5 MT-4 cells are cultured with 100 μL various concentrations of compounds for 1 h, then 100 μL suitable virus dilution is added to the compound, and the cells are cultured at 37° C. for 1 h. After being washed for 3 times, the cells are suspended again in the culture media containing or not compounds individually. Subsequently, the cells are transferred to the atmosphere containing 5% CO2 and cultured for 7 days at 37° C., and culture media containing or not compounds are used to replace or supplement the culture solution on the third day after infection. Kinds of culture conditions should be duplicated. The cell lesions caused by virus are monitored with reverse light microscopy everyday. Typically, the virus dilution applied in the present experiments generally cause cell lesion on the fifth day after infection. […] It should be emphasized that, when the compound is poorly water-soluble and can only be dissolved in DMSO, the ratio of DMSO to water is generally below 10% (the final concentration of DMSO in MT-4 cell culture media is smaller than 2%). Because DMSO can influence the anti-virus activity of the tested compounds, blank tests on the solution containing the same concentration of DMSO should be conducted in parallel. Additionally, the final concentration of DMSO is far below the concentration required to influence the replication of HIV-1 in T cells.

[2] = Cell toxicity in uninfected MT-4 cells (MTT method); format: cell-based; conditions: human
Procedure: as §1, §3

[3] = tested on: drug-resistant viral strain of L103N+Y181C; assay: Anti-HIV activity in MT-4 cells, drug-resistant viral strain; format: cell-based, HIV-1
Procedure: as §1, §2, §3

[4] = tested on: MT-4 cells; assay: Cell toxicity in uninfected MT-4 cells (MTT method); format: cell-based
Procedure: as §1, §3

[5] = HIV-1 IIIB, MT-4 cells, Table 3
[6] = Human immunodeficiency virus 1, IIIB, MT4, read-out: EC50 HIV-1(IIIB)
[7] = HIV-1 IIIB, MT-4 cells, Table 1
[8] = MT-4 cells, Table 3, read-out: EC50 HIV-1(IIIB)
[9] = MT-4 cells, Table 1, read-out: EC50 HIV-1(IIIB)
[10] = MT-4 cells, Table 1, read-out: EC50 103N + 181C
[11] = Human immunodeficiency virus 1, IIIB, MT4, MT-4 cells, Table 1, read-out: EC50 HIV-1(IIIB)
[12] = Human immunodeficiency virus 1, IIIB, MT4, MT-4 cells, Table 2, read-out: EC50 WT(IIIB)

SMILES	EC50 [1, 8] [µM]	CC50 ([4]; Table 3) [µM]	EC50 [1, 9] [µM]	CC50 ([4]; Table 1) [µM]	also measured
Cc1cc(Br)cc(Br)c1Oc1nc(Nc2ccc(C#N)cc2)nc2ccccc12 [Compound 32]					SI (Selectivity index, the ratio of CC50/IC50) [1, 5]: 8917; EC50 [1, 6]: 0.0176 µM; CC50 at 7 days ([2]; uninfected MT-4 cells, Table 3): 157 µM
N#Cc1ccc(Nc2nc(Cl)cc(Oc3cccc4cccnc34)n2)cc1 [Compound 2]					SI (Selectivity index, the ratio of CC50/IC50) [1, 7]: 1031; EC50 [1, 6]: 0.0195 µM; EC50 ([3]; Human immunodeficiency virus 1, MT4, read-out: EC50 103N + 181C, MT-4 cells, Table 1): ≥ 20.1 µM; CC50 at 7 days ([2]; uninfected MT-4 cells, Table 1): 20.1 µM
N#Cc1ccc(Nc2nc(Oc3ccccc3Cl)c3ccccc3n2)cc1 [Compound 39]	0.057	343			
N#Cc1ccc(Nc2nccc(Oc3ccc4cc(C#N)ccc4c3Br)n2)cc1 [Compound 15]			0.0016	290	EC50 [3, 10]: 0.24 µM
N#Cc1ccc(Nc2nccc(Oc3cc4ccc(C#N)cc4cc3Br)n2)cc1 [Compound 16]			0.0011	55.4	EC50 [3, 10]: > 56.5 µM
CCOc1cc(C#N)cc(OCC)c1Oc1nc(Nc2ccc(C#N)cc2)nc2ccccc12 [Compound 46]	0.0029	> 99.3			
Cc1ccnc2c1NC(=O)c1cccnc1N2C1CC1 [NVP, nevirapine, reference compound]					EC50 [1, 11]: 0.0751 µM; EC50 [1, 12]: 0.0751 µM; CC50 at 7 days ([2]; Table 1): 5.41 µM; CC50 at 7 days ([2]; Table 3): > 15 µM
N#Cc1ccc(Nc2nc(S(=O)(=O)c3ccccc3)c3ccccc3n2)cc1 [Compound 51]	0.589	> 215			
Cc1cnc(Nc2ccc(C#N)cc2)nc1Oc1cccc2cccnc12 [Compound 5]			0.0058	19.9	
Cc1ccc(Oc2nc(Nc3ccc(C#N)cc3)nc3ccccc23)cc1 [Compound 31]					SI (Selectivity index, the ratio of CC50/IC50) [1, 5]: 8091; EC50 [1, 6]: 0.042 µM; CC50 at 7 days ([2]; uninfected MT-4 cells, Table 3): 340 µM
Cc1cc2ccccc2c(C)c1Oc1ccnc(Nc2ccc(C#N)cc2)n1 [Compound 12]			0.0041	313	EC50 [3, 10]: 1.17 µM
Cc1cc(Br)c(Oc2nc(Nc3ccc(C#N)cc3)nc3ccccc23)c(Br)c1 [Compound 35]	0.015	23.4			
Cc1cc(C#N)ccc1Oc1nc(Nc2ccc(C#N)cc2)nc2ccccc12 [Compound 33]	0.028	> 333			
CNc1nc(Nc2ccc(C#N)cc2)nc(Oc2ccc3cc(C#N)ccc3c2)c1C(C)C [Compound 19]			0.0076	265	EC50 [3, 10]: 4.58 µM
N#Cc1ccc(Nc2nccc(Oc3ccc4cc(Br)ccc4c3Br)n2)cc1 [Compound 13]			0.0046	51.1	EC50 [3, 10]: > 50.4 µM
N#Cc1ccc(Nc2nc(Oc3ccc(Cl)cc3Cl)c3ccccc3n2)cc1 [Compound 37]	0.028	114			
CNc1nc(Nc2ccc(C#N)cc2)nc(Oc2ccc3ccccc3c2Br)c1C [Compound 17]			0.0154	177	EC50 [3, 10]: 6.15 µM
COc1cc(C#N)cc(OC)c1Oc1nc(Nc2ccc(C#N)cc2)nc2ccccc12 [Compound 41]	0.0022	> 93.1			
COc1cc(C#N)cc(OC(C)C)c1Oc1nc(Nc2ccc(C#N)cc2)nc2ccccc12 [Compound 50]	0.0067	> 65.8			
CCc1c(NC)nc(Nc2ccc(C#N)cc2)nc1Oc1ccc2cc(C#N)ccc2c1Br [Compound 18]			0.0062	304	EC50 [3, 10]: > 59.5 µM
COc1cc(C#N)cc(Cl)c1Oc1nc(Nc2ccc(C#N)cc2)nc2ccccc12 [Compound 48]	0.0056	> 173			
N#Cc1ccc(Nc2nc(Oc3c(Cl)cc(Cl)cc3Cl)c3ccccc3n2)cc1 [Compound 42]	0.0035	244			
N#Cc1ccc(Nc2nc(Oc3ccccc3)c3ccccc3n2)cc1 [Compound 30]					SI (Selectivity index, the ratio of CC50/IC50) [1, 5]: >411; EC50 [1, 6]: 0.887 µM; CC50 at 7 days ([2]; uninfected MT-4 cells, Table 3): > 365 µM
CCOc1cc(C#N)cc(OC)c1Oc1nc(Nc2ccc(C#N)cc2)nc2ccccc12 [Compound 52]	0.0026	> 130			

SMILES	EC50 [1, 8] [µM]	CC50 ([4]; Table 3) [µM]	EC50 [1, 9] [µM]	CC50 ([4]; Table 1) [µM]	also measured
Cc1c(Cl)nc(Nc2ccc(C#N)cc2)nc1Oc1cccc2cccnc12 [Compound 6]			0.0257	44.7	
Cc1cccc(C)c1Oc1nc(Nc2ccc(C#N)cc2)nc2ccccc12 [Compound 43]	0.046	> 640			
N#Cc1ccc(Nc2nc(Sc3ccccc3)c3ccccc3n2)cc1 [Compound 44]	0.752	494			
Cc1cccc(Oc2nc(Nc3ccc(C#N)cc3)nc3ccccc23)c1 [Compound 27]					SI (Selectivity index, the ratio of CC50/IC50) [1, 5]: >563; EC50 [1, 6]: 0.625 µM; CC50 at 7 days ([2]; uninfected MT-4 cells, Table 3): > 352 µM
Cc1cc(C)c(Oc2nc(Nc3ccc(C#N)cc3)nc3ccccc23)c(C)c1 [Compound 36]	0.023	> 34.1			
N#Cc1ccc(Nc2nccc(Oc3ccc4cc(C#N)ccc4c3)n2)cc1 [Compound 14]			0.0033	67.8	EC50 [3, 10]: 6.3 µM
CCCOc1cc(C#N)cc(OCC)c1Oc1nc(Nc2ccc(C#N)cc2)nc2ccccc12 [Compound 47]	0.0032	> 66.7			
CNc1nc(Nc2ccc(C#N)cc2)nc(Oc2cccc3cccnc23)c1C [Compound 7]			0.0158	36.5	
N#Cc1ccc(Nc2nc(Oc3ccc(Cl)cc3)c3ccccc3n2)cc1 [Compound 40]	0.167	> 396			
N#Cc1ccc(Nc2nc(Oc3c(Br)cc(Br)cc3Br)c3ccccc3n2)cc1 [Compound 34]	0.023	71			
Cc1cc(C#N)cc(C)c1Oc1nc(Nc2ccc(C#N)cc2)nc2ccccc12 [Compound 45]	0.0036	> 172			
COc1ccccc1Oc1nc(Nc2ccc(C#N)cc2)nc2ccccc12 [Compound 29]					SI (Selectivity index, the ratio of CC50/IC50) [1, 5]: >6186; EC50 [1, 6]: 0.03 µM; CC50 at 7 days ([2]; uninfected MT-4 cells, Table 3): > 186 µM
Cc1cn([C@H]2C[C@H](N=[N+]=[N-])[C@@H](CO)O2)c(=O)[nH]c1=O [DDN/AZT, reference compound]	0.00517	> 93.5			
Cc1cc2ccccc2cc1Oc1ccnc(Nc2ccc(C#N)cc2)n1 [Compound 11]			0.0023	71.2	EC50 [3, 10]: > 70.9 µM
CCOc1cc(C#N)cc(Cl)c1Oc1nc(Nc2ccc(C#N)cc2)nc2ccccc12 [Compound 49]	0.0059	> 594			
Cc1ccccc1Oc1nc(Nc2ccc(C#N)cc2)nc2ccccc12 [Compound 25]					SI (Selectivity index, the ratio of CC50/IC50) [1, 5]: 1148; EC50 [1, 6]: 0.0937 µM; CC50 at 7 days ([2]; uninfected MT-4 cells, Table 3): 108 µM
CC(C)Nc1cccnc1N1CCN(C(=O)c2cc3cc(NS(C)(=O)=O)ccc3[nH]2)CC1 [DLV, Delavirdine, reference compound]					SI (Selectivity index, the ratio of CC50/IC50) [1, 7]: 12; EC50 [1, 11]: 0.072 µM; EC50 [1, 12]: 0.072 µM; SI (Selectivity index, the ratio of CC50/IC50) ([1]; WT(IIIB), Table 2): 12; CC50 at 7 days ([2]; uninfected MT-4 cells, Table 1): 0.86 µM
Cc1c(Oc2ccnc(Nc3ccc(C#N)cc3)n2)ccc2ccccc12 [Compound 10]			0.00346	114	EC50 [3, 10]: 11 µM
COc1nc(Nc2ccc(C#N)cc2)nc(Oc2cccc3cccnc23)c1C [Compound 8]			0.0178	31.8	
Cc1cc(C)c(Oc2nc(Nc3ccc(C#N)cc3)nc3ccc(Cl)cc23)c(C)c1 [Compound 54]	0.0018	147			
CC(C)c1c(Cl)nc(Nc2ccc(C#N)cc2)nc1Oc1ccc2cc(C#N)ccc2c1 [Compound 9]			0.05	436	EC50 [3, 10]: 3.36 µM
COc1ccc(Oc2nc(Nc3ccc(C#N)cc3)nc3ccccc23)cc1 [Compound 28]					SI (Selectivity index, the ratio of CC50/IC50) [1, 5]: >1810; EC50 [1, 6]: 0.187 µM; CC50 at 7 days ([2]; uninfected MT-4 cells, Table 3): > 3400 µM
N#Cc1ccc(Nc2nc(Oc3ccc(Br)cc3)c3ccccc3n2)cc1 [Compound 26]					SI (Selectivity index, the ratio of CC50/IC50) [1, 5]: 894; EC50 [1, 6]: 0.263 µM; CC50 at 7 days ([2]; uninfected MT-4 cells, Table 3): 235 µM
N#Cc1ccc(Nc2nc(Oc3ccc(F)cc3)c3ccccc3n2)cc1 [Compound 38]	0.156	310			
